Measurements from patent publication US11312719B2, “9-substituted amino triazolo quinazoline derivatives as adenosine receptor antagonists, pharmaceutical compositions and their use” (Merck Sharp & Dohme Corp., priority 2018, dated 2022).

Experiments:
human A2A receptors = human A2A receptors (Homo sapiens (Human), UniProt P29274); experiment: A2A antagonism in cAMP cell-based assay (LANCE cAMP, HEK293); conditions: HEK293 cells expressing human A2A receptor
In short: (§1)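 HEK293 cells expressing human A2A or A2B, in HBSS/5 mM HEPES/200 nM rolipram, were preincubated with compound (0.5–10,000 nM, 0.25% DMSO) 30 min at 37° C. Adenosine was then added from 300 nM (A2A) or 600 nM (A2B) solution for 30 min.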

human A2B receptors = human A2B receptors (Homo sapiens (Human), UniProt P29275); experiment: A2B antagonism in cAMP cell-based assay (LANCE cAMP, HEK293); conditions: HEK293 cells expressing human A2B receptor
In short: as §1

Chain of human A2A receptors (P29274 whole entry): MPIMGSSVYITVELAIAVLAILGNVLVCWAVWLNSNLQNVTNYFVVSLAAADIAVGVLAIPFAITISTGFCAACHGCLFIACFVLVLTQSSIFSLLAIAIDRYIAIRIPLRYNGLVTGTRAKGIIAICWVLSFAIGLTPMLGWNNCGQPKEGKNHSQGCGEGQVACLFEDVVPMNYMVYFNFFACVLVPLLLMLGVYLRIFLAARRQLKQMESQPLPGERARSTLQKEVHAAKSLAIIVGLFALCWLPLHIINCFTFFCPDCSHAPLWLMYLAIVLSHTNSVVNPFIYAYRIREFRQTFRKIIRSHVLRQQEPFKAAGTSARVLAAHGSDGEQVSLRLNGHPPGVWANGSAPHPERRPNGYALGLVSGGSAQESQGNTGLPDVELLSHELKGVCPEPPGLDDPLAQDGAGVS
Chain of human A2B receptors (P29275 whole entry): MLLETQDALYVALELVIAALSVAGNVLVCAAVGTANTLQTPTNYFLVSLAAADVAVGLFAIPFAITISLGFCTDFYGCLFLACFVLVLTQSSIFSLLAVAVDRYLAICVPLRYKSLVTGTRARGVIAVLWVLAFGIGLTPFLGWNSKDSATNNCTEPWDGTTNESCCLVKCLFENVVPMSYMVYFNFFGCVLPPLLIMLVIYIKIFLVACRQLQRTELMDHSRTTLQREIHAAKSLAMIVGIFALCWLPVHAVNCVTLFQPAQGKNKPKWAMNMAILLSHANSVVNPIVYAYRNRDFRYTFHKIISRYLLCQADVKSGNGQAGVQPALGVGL

For `CC(O)C(C)(C)n1cc(N2CCC[C@@H](c3nc4c5cc(F)cc(F)c5nc(N)n4n3)C2)cn1` (single isomer, unassigned) [Example 247, (S or R)-3-(4-((R)-3-(5-amino-7,9-difluoro-[1,2,4]triazolo [1,5-c]quinazolin-2-yl)piperidin-1-yl)-1H-pyrazol-1-yl)-3-methylbutan-2-ol], the IC50 (human A2A receptors) was 4.5 nM and the IC50 (human A2B receptors) was 21.8 nM.
With `C[C@H]1CC[C@@H](c2nc3c4cc(F)cc(F)c4nc(N)n3n2)CN1c1cnn(C(C)(CO)CO)c1` (single isomer, unassigned) [Example 248, 2-(4-((2S,5R or 2R,5S)-5-(5-amino-7,9-difluoro-[1,2,4]triazolo[1,5-c]quinazolin-2-yl)-2-methylpiperidin-1-yl)-1H-pyrazol-1-yl)-2-methylpropane-1,3-diol] the IC50 (human A2A receptors) was 1.4 nM and the IC50 (human A2B receptors) was 8.4 nM.
`C[C@@H]1CC[C@H](c2nc3c4cc(F)cc(F)c4nc(N)n3n2)CN1c1cnn(C(C)(CO)CO)c1` (single isomer, unassigned) [Example 249, 2-(4-((2R,5S or 2S,5R)-5-(5-amino-7,9-difluoro-[1,2,4]triazolo[1,5-c]quinazolin-2-yl)-2-methylpiperidin-1-yl)-1H-pyrazol-1-yl)-2-methylpropane-1,3-diol] gave an IC50 (human A2A receptors) of 26.9 nM and an IC50 (human A2B receptors) of 197 nM.
`COc1cc2nc(N)n3nc(C4CCC(C)N(c5cnn(C(C)(CO)CO)c5)C4)nc3c2cc1F` (single isomer, unassigned) [Example 250, 2-(4-((2S,5R or 2R,5S)-5-(5-amino-9-fluoro-8-methoxy-[1,2,4]triazolo[1,5-c]quinazolin-2-yl)-2-methylpiperidin-1-yl)-1H-pyrazol-1-yl)-2-methylpropane-1,3-diol] was tested, and the IC50 (human A2A receptors) was 0.7 nM and the IC50 (human A2B receptors) was 4.9 nM.
With `COc1cc2nc(N)n3nc(C4CCC(C)N(c5cnn(C(C)(CO)CO)c5)C4)nc3c2cc1F` (single isomer, unassigned) [Example 251, 2-(4-((2R,5S or 2S,5R)-5-(5-amino-9-fluoro-8-methoxy-[1,2,4]triazolo[1,5-c]quinazolin-2-yl)-2-methylpiperidin-1-yl)-1H-pyrazol-1-yl)-2-methylpropane-1,3-diol] the IC50 (human A2A receptors) was 39.5 nM and the IC50 (human A2B receptors) was 387 nM.
`COc1cc2nc(N)n3nc(C4CCC(C)N(c5cnn(CC(C)(O)CO)c5)C4)nc3c2cc1F` (single isomer, unassigned) [Example 252] gave an IC50 (human A2A receptors) of 95 nM and an IC50 (human A2B receptors) of 8160 nM.
For `COc1cc2nc(N)n3nc(C4CCC(C)N(c5cnn(CC(C)(O)CO)c5)C4)nc3c2cc1F` (single isomer, unassigned) [Example 253, (S or R)-2-(4-((2S,5R or 2R,5S)-5-(5-amino-9-fluoro-8-methoxy-[1,2,4]triazolo[1,5-c]quinazolin-2-yl)-2-methylpiperidin-1-yl)-1H-pyrazol-1-yl)-2-methylpropane-1,2-diol], the IC50 (human A2A receptors) was 123 nM and the IC50 (human A2B receptors) was > 10000 nM.
Molecule `COc1cc2nc(N)n3nc(C4CCC(C)N(c5cnn(CC(C)(O)CO)c5)C4)nc3c2cc1F` (single isomer, unassigned) [Example 254] has an IC50 (human A2A receptors) of 1.5 nM and an IC50 (human A2B receptors) of 10 nM.
`COc1cc2nc(N)n3nc(C4CCC(C)N(c5cnn(CC(C)(O)CO)c5)C4)nc3c2cc1F` (single isomer, unassigned) [Example 255] showed an IC50 (human A2A receptors) of 2.6 nM and an IC50 (human A2B receptors) of 28.8 nM.
Work on `CC1CCC(c2nc3c4cc(F)cc(F)c4nc(N)n3n2)CN1c1cnn(CC(C)(O)CO)c1` (single isomer, unassigned) [Example 256] yielded an IC50 (human A2A receptors) of 241 nM and an IC50 (human A2B receptors) of 3890 nM.
`CC1CCC(c2nc3c4cc(F)cc(F)c4nc(N)n3n2)CN1c1cnn(CC(C)(O)CO)c1` (single isomer, unassigned) [Example 257, (S or R)-2-(4-((2S,5R or 2R,5S)-5-(5-amino-7,9-difluoro-[1,2,4]triazolo[1,5-c]quinazolin-2-yl)-2-methylpiperidin-1-yl)-1H-pyrazol-1-yl)-2-methylpropane-1,2-diol] was tested, and the IC50 (human A2A receptors) was 541 nM and the “A2B cAMP % Inh. @10000 nM” value (human A2B receptors; at 10000 nM) was 25% Inh.
`CC1CCC(c2nc3c4cc(F)cc(F)c4nc(N)n3n2)CN1c1cnn(CC(C)(O)CO)c1` (single isomer, unassigned) [Example 258, (R or S)-2-(4-((2R,5S or 2S,5R)-5-(5-amino-7,9-difluoro-[1,2,4]triazolo[1,5-c]quinazolin-2-yl)-2-methylpiperidin-1-yl)-1H-pyrazol-1-yl)-2-methylpropane-1,2-diol] was tested, and the IC50 (human A2A receptors) was 2.3 nM and the IC50 (human A2B receptors) was 8.1 nM.
Work on `CC1CCC(c2nc3c4cc(F)cc(F)c4nc(N)n3n2)CN1c1cnn(CC(C)(O)CO)c1` (single isomer, unassigned) [Example 259, (S or R)-2-(4-((2R,5S or 2S,5R)-5-(5-amino-7,9-difluoro-[1,2,4]triazolo[1,5-c]quinazolin-2-yl)-2-methylpiperidin-1-yl)-1H-pyrazol-1-yl)-2-methylpropane-1,2-diol] yielded an IC50 (human A2A receptors) of 2.3 nM and an IC50 (human A2B receptors) of 11.8 nM.
For `CC1CCC(c2nc3c4cc(F)cc(F)c4nc(N)n3n2)CN1c1cnn(CC(C)(CO)CO)c1` (single isomer, unassigned) [Example 260], the IC50 (human A2A receptors) was 1.7 nM and the IC50 (human A2B receptors) was 10 nM.
Work on `CC1CCC(c2nc3c4cc(F)cc(F)c4nc(N)n3n2)CN1c1cnn(CC(C)(CO)CO)c1` (single isomer, unassigned) [Example 261] yielded an IC50 (human A2A receptors) of 86.6 nM and an IC50 (human A2B receptors) of 1470 nM.
In the case of `COc1cc2nc(N)n3nc(C4CCC(C)N(c5cnn(CC(C)(C)N)c5)C4)nc3c2cc1F` (single isomer, unassigned) [Example 262, 2-((3R,6S or 3S,6R)-1-(1-(2-amino-2-methylpropyl)-1H-pyrazol-4-yl)-6-methylpiperidin-3-yl)-9-fluoro-8-methoxy-[1,2,4]triazolo[1,5-c]quinazolin-5-amine], the IC50 (human A2A receptors) is reported as 2.2 nM and the IC50 (human A2B receptors) is reported as 23.9 nM.
`COc1cc2nc(N)n3nc(C4CCC(C)N(c5cnn(CC(C)(C)N)c5)C4)nc3c2cc1F` (single isomer, unassigned) [Example 263, 2-((3S,6R or 3R,6S)-1-(1-(2-amino-2-methylpropyl)-1H-pyrazol-4-yl)-6-methylpiperidin-3-yl)-9-fluoro-8-methoxy-[1,2,4]triazolo[1,5-c]quinazolin-5-amine] was tested, and the IC50 (human A2A receptors) was 26 nM and the IC50 (human A2B receptors) was 511 nM.
`COc1cc2nc(N)n3nc(C4CCC(C)N(c5cnn(C(C)(C)C(C)O)c5)C4)nc3c2cc1F` (single isomer, unassigned) [Example 264, (R or S)-3-(4-((2S,5R or 2R,5S)-5-(5-amino-9-fluoro-8-methoxy-[1,2,4]triazolo[1,5-c]quinazolin-2-yl)-2-methylpiperidin-1-yl)-1H-pyrazol-1-yl)-3-methylbutan-2-ol] showed an IC50 (human A2A receptors) of 3 nM and an IC50 (human A2B receptors) of 14.3 nM.
Work on `COc1cc2nc(N)n3nc(C4CCC(C)N(c5cnn(C(C)(C)C(C)O)c5)C4)nc3c2cc1F` (single isomer, unassigned) [Example 265, (S or R)-3-(4-((2S,5R or 2R,5S)-5-(5-amino-9-fluoro-8-methoxy-[1,2,4]triazolo[1,5-c]quinazolin-2-yl)-2-methylpiperidin-1-yl)-1H-pyrazol-1-yl)-3-methylbutan-2-ol] yielded an IC50 (human A2A receptors) of 1.3 nM and an IC50 (human A2B receptors) of 4.5 nM.
`COc1cc2nc(N)n3nc(C4CCC(C)N(c5cnn(C(C)(C)C(C)O)c5)C4)nc3c2cc1F` (single isomer, unassigned) [Example 266, (R or S)-3-(4-((2R,5S or 2S,5R)-5-(5-amino-9-fluoro-8-methoxy-[1,2,4]triazolo[1,5-c]quinazolin-2-yl)-2-methylpiperidin-1-yl)-1H-pyrazol-1-yl)-3-methylbutan-2-ol] gave an IC50 (human A2A receptors) of 64.2 nM and an IC50 (human A2B receptors) of 580 nM.
`COc1cc2nc(N)n3nc(C4CCC(C)N(c5cnn(C(C)(C)C(C)O)c5)C4)nc3c2cc1F` (single isomer, unassigned) [Example 267, (S or R)-3-(4-((2R,5S or 2S,5R)-5-(5-amino-9-fluoro-8-methoxy-[1,2,4]triazolo[1,5-c]quinazolin-2-yl)-2-methylpiperidin-1-yl)-1H-pyrazol-1-yl)-3-methylbutan-2-ol] showed an IC50 (human A2A receptors) of 175 nM and an IC50 (human A2B receptors) of 1210 nM.
For `COc1cc(F)cc2c1nc(N)n1nc(C3CCC(C)N(c4cnn(C(C)(C)C(C)O)c4)C3)nc21` (single isomer, unassigned) [Example 268, (R or S)-3-(4-((2S,5R or 2R,5S)-5-(5-amino-9-fluoro-7-methoxy-[1,2,4]triazolo[1,5-c]quinazolin-2-yl)-2-methylpiperidin-1-yl)-1H-pyrazol-1-yl)-3-methylbutan-2-ol], the IC50 (human A2A receptors) was 0.7 nM and the IC50 (human A2B receptors) was 4.7 nM.
For `COc1cc(F)cc2c1nc(N)n1nc(C3CCC(C)N(c4cnn(C(C)(C)C(C)O)c4)C3)nc21` (single isomer, unassigned) [Example 269, (S or R)-3-(4-((2S,5R or 2R,5S)-5-(5-amino-9-fluoro-7-methoxy-[1,2,4]triazolo[1,5-c]quinazolin-2-yl)-2-methylpiperidin-1-yl)-1H-pyrazol-1-yl)-3-methylbutan-2-ol], the IC50 (human A2A receptors) was 1.2 nM and the IC50 (human A2B receptors) was 6.4 nM.
With `COc1cc(F)cc2c1nc(N)n1nc(C3CCC(C)N(c4cnn(C(C)(C)C(C)O)c4)C3)nc21` (single isomer, unassigned) [Example 270, (R or S)-3-(4-((2R,5S or 2S,5R)-5-(5-amino-9-fluoro-7-methoxy-[1,2,4]triazolo[1,5-c]quinazolin-2-yl)-2-methylpiperidin-1-yl)-1H-pyrazol-1-yl)-3-methylbutan-2-ol] the IC50 (human A2A receptors) was 5.2 nM and the IC50 (human A2B receptors) was 30.3 nM.
`COc1cc(F)cc2c1nc(N)n1nc(C3CCC(C)N(c4cnn(C(C)(C)C(C)O)c4)C3)nc21` (single isomer, unassigned) [Example 271, (S or R)-3-(4-((2R,5S or 2S,5R)-5-(5-amino-9-fluoro-7-methoxy-[1,2,4]triazolo[1,5-c]quinazolin-2-yl)-2-methylpiperidin-1-yl)-1H-pyrazol-1-yl)-3-methylbutan-2-ol] showed an IC50 (human A2A receptors) of 21.4 nM and an IC50 (human A2B receptors) of 242 nM.
